Results: US4973673A, “Serine analogs of BU-3608 antibiotics” (Bristol-Myers Company, priority 1988, dated 1990)
Values after ≈ are worked out from the molar mass of the structure shown. Read-outs that look alike come from different tables or passages of the source.

How the values were obtained:
A. flavus FA21436 = experiment: Serial agar dilution MIC, Sabouraud dextrose agar; assay type: cell-based; details: Aspergillus flavus, pH 7.0, 40 hours at 28° C.
Method: (§1) Antifungal activities of representative compounds of the present invention were evaluated both in vitro and in vivo. The minimum inhibitory concentrations (MICs) against various fungi were determined by serial agar dilution method using Sabouraud dextrose agar. Thus, approximately 0.003 ml of fungal suspension containing 10^6 cells/ml was applied to the surface of agar plates containing the test antibiotics.

[1] = system: Cryptococcus neoformans D49; experiment: Serial agar dilution MIC, Sabouraud dextrose agar; assay type: cell-based; details: pH 7.0, 40 hours at 28° C.
Method: as §1

[2] = system: Blastomyces dermatitidis D40; experiment: Serial agar dilution MIC, Sabouraud dextrose agar; assay type: cell-based; details: pH 7.0, 40 hours at 28° C.
Method: as §1

T. mentagrophytes #4329 = experiment: Serial agar dilution MIC, Sabouraud dextrose agar; assay type: cell-based; details: Trichophyton mentagrophytes, pH 7.0, 40 hours at 28° C.
Method: as §1

Candida albicans IAM4888 = experiment: Serial agar dilution MIC, Sabouraud dextrose agar; assay type: cell-based; details: pH 7.0, 40 hours at 28° C.
Method: as §1

[3] = system: Petriellidium boydii IFO8073; experiment: Serial agar dilution MIC, Sabouraud dextrose agar; assay type: cell-based; details: Scedosporium boydii, pH 7.0, 40 hours at 28° C.
Method: as §1

C. neoformans IAM4514 [4] = experiment: Serial agar dilution MIC, Sabouraud dextrose agar; assay type: cell-based; details: Cryptococcus neoformans, pH 7.0, 40 hours at 28° C.
Method: as §1

Mucor spinosus IFO5317 = experiment: Serial agar dilution MIC, Sabouraud dextrose agar; assay type: cell-based; details: pH 7.0, 40 hours at 28° C.
Method: as §1

[5] = system: Trichophyton mentagrophytes D155; experiment: Serial agar dilution MIC, Sabouraud dextrose agar; assay type: cell-based; details: pH 7.0, 40 hours at 28° C.
Method: as §1

[6] = system: Aspergillus fumigatus IAM2530; experiment: Serial agar dilution MIC, Sabouraud dextrose agar; assay type: cell-based; details: pH 7.0, 40 hours at 28° C.
Method: as §1

A. fumigatus IAM2034 [7] = experiment: Serial agar dilution MIC, Sabouraud dextrose agar; assay type: cell-based; details: Aspergillus fumigatus, pH 7.0, 40 hours at 28° C.
Method: as §1

[8] = system: Fusarium moniliforme A2284; experiment: Serial agar dilution MIC, Sabouraud dextrose agar; assay type: cell-based; details: Fusarium verticillioides, pH 7.0, 40 hours at 28° C.
Method: as §1

[9] = system: Sporothrix schenckii IFO8158; experiment: Serial agar dilution MIC, Sabouraud dextrose agar; assay type: cell-based; details: pH 7.0, 40 hours at 28° C.
Method: as §1

C. albicans A9540 [10] = experiment: Serial agar dilution MIC, Sabouraud dextrose agar; assay type: cell-based; details: Candida albicans, pH 7.0, 40 hours at 28° C.
Method: as §1

C. albicans A9540 [11] = experiment: In vivo antifungal activity, intravenous infection in mice; design: species or system Male ICR mice; details: Candida albicans, 480 h, survival on 20th day, read-out: PD50 (50% protective dose)
Method: (§2) In vivo antifungal activities were evaluated against intravenous infections with Candida albicans A9540, Cryptococcus neoformans IAM4514 and Aspergillus fumigatus IAM2034 in mice. Candida albicans and Cryptococcus neoformans were cultured for 18 and 48 hours, respectively, at 28° C. in YGP medium [yeast extract(0.2%), glucose(1.5%), peptone(0.5%), K2 HPO4 (0.05%) and MgSO4 (0.05%)] and suspended in saline. Aspergillus fumigatus was cultured for 7 days at 28° C. on YGP agar slant and suspended in saline. Spores were collected by filtering fungal suspension through gauze. Male ICR mice weighing 20 to 24 g were infected intravenously with about 10 times the median lethal dose of the fungi.
(§3) Test compounds were administered at various doses to groups of 5 mice each intravenously either once just after fungal challenge (day 0) or once daily for 5 days from day 0 to day 4 (qd×5). The 50% protective dose (PD50) was calculated from survival rates recorded on the 20th day after fungal challenge. All control animals died within 7 to 15 days after fungal infection.

[12] = system: calcium ion and calmodulin-dependent cyclic nucleotide phosphodiesterase; details: background statement; cited from earlier work
mice = experiment: Acute toxicity (LD50) in mice, single intravenous dose; assay type: in vivo; details: at 600 mg/kg, the highest dose tested
Method: The LD50 for N,N-dimethyl BU-3608 FA-2 was determined in mice after a single intravenous dose.

C. neoformans IAM4514 [13] = experiment: In vivo antifungal activity, intravenous infection in mice; design: species or system Male ICR mice; details: Cryptococcus neoformans, 480 h, survival on 20th day, read-out: PD50 (50% protective dose)
Method: as §2, §3

A. fumigatus IAM2034 [14] = experiment: as above; design: species or system Male ICR mice; details: Aspergillus fumigatus, 480 h, survival on 20th day, read-out: PD50 (50% protective dose)
Method: as §2, §3

[15] = single dose just after challenge

CN[C@@H]1[C@H](O[C@@H]2OC[C@@H](O)[C@H](O)[C@H]2O)[C@@H](O)[C@H](O[C@H]2c3cc(C)c(C(=O)N[C@H](CO)C(=O)O)c(O)c3-c3c(cc4c(c3O)C(=O)c3cc(OC)cc(O)c3C4=O)[C@@H]2O)O[C@@H]1C [BU-3608 FA-1]
MIC (A. flavus FA21436): 6.3 µg/mL (≈ 7.35 µM) | MIC [1]: 0.8 µg/mL (≈ 0.934 µM) | MIC [2]: 3.1 µg/mL (≈ 3.62 µM) | MIC (T. mentagrophytes #4329): 6.3 µg/mL (≈ 7.35 µM) | MIC (Candida albicans IAM4888): 6.3 µg/mL (≈ 7.35 µM) | MIC [3]: 12.5 µg/mL (≈ 14.6 µM) | MIC (C. neoformans IAM4514 [4]): 0.8 µg/mL (≈ 0.934 µM) | MIC (Mucor spinosus IFO5317): > 100 µg/mL | MIC [5]: 6.3 µg/mL (≈ 7.35 µM) | MIC [6]: 3.1 µg/mL (≈ 3.62 µM) | MIC (A. fumigatus IAM2034 [7]): 6.3 µg/mL (≈ 7.35 µM) | MIC [8]: 6.3 µg/mL (≈ 7.35 µM) | MIC [9]: 1.6 µg/mL (≈ 1.87 µM) | MIC (C. albicans A9540 [10]): 12.5 µg/mL (≈ 14.6 µM) | ED50 (C. albicans A9540 [11]; [15]): 18 mg/kg

COc1cc(O)c2c(c1)C(=O)c1c(cc3c(c1O)-c1c(cc(C)c(C(=O)N[C@H](CO)C(=O)O)c1O)[C@H](O[C@@H]1O[C@H](C)[C@H](N)[C@H](O[C@@H]4OC[C@@H](O)[C@H](O)[C@H]4O)[C@H]1O)[C@H]3O)C2=O [BU-3608 FA-2]
MIC (A. flavus FA21436): 6.3 µg/mL (≈ 7.48 µM) | MIC [1]: 0.8 µg/mL (≈ 0.949 µM) | MIC [2]: 3.1 µg/mL (≈ 3.68 µM) | MIC (T. mentagrophytes #4329): 6.3 µg/mL (≈ 7.48 µM) | MIC (Candida albicans IAM4888): 6.3 µg/mL (≈ 7.48 µM) | MIC [3]: 25 µg/mL (≈ 29.7 µM) | MIC (C. neoformans IAM4514 [4]): 0.8 µg/mL (≈ 0.949 µM) | MIC (Mucor spinosus IFO5317): > 100 µg/mL | MIC [5]: 6.3 µg/mL (≈ 7.48 µM) | MIC [6]: 3.1 µg/mL (≈ 3.68 µM) | MIC (A. fumigatus IAM2034 [7]): 6.3 µg/mL (≈ 7.48 µM) | MIC [8]: 6.3 µg/mL (≈ 7.48 µM) | MIC [9]: 1.6 µg/mL (≈ 1.9 µM) | MIC (C. albicans A9540 [10]): 6.3 µg/mL (≈ 7.48 µM) | ED50 (C. albicans A9540 [11]; [15]): 7.4 mg/kg

CN[C@@H]1[C@H](O)[C@@H](O)[C@H](O[C@H]2c3cc(C)c(C(=O)N[C@H](CO)C(=O)O)c(O)c3-c3c(cc4c(c3O)C(=O)c3cc(OC)cc(O)c3C4=O)[C@@H]2O)O[C@@H]1C [Des-xylosyl BU-3608 FA-1]
MIC (A. flavus FA21436): 50 µg/mL (≈ 69 µM) | MIC [1]: 1.6 µg/mL (≈ 2.21 µM) | MIC [2]: 6.3 µg/mL (≈ 8.69 µM) | MIC (T. mentagrophytes #4329): 12.5 µg/mL (≈ 17.2 µM) | MIC (Candida albicans IAM4888): 3.1 µg/mL (≈ 4.28 µM) | MIC [3]: > 100 µg/mL | MIC (C. neoformans IAM4514 [4]): 1.6 µg/mL (≈ 2.21 µM) | MIC (Mucor spinosus IFO5317): 12.5 µg/mL (≈ 17.2 µM) | MIC [5]: 12.5 µg/mL (≈ 17.2 µM) | MIC [6]: 6.3 µg/mL (≈ 8.69 µM) | MIC (A. fumigatus IAM2034 [7]): 6.3 µg/mL (≈ 8.69 µM) | MIC [8]: > 100 µg/mL | MIC [9]: 6.3 µg/mL (≈ 8.69 µM) | MIC (C. albicans A9540 [10]): 3.1 µg/mL (≈ 4.28 µM)

COc1cc(O)c2c(c1)C(=O)c1c(cc3c(c1O)-c1c(cc(C)c(C(=O)N[C@H](CO)C(=O)O)c1O)[C@H](O[C@@H]1O[C@H](C)[C@H](N)[C@H](O)[C@H]1O)[C@H]3O)C2=O [Des-xylosyl BU-3608 FA-2]
MIC (A. flavus FA21436): 50 µg/mL (≈ 70.4 µM) | MIC [1]: 3.1 µg/mL (≈ 4.36 µM) | MIC [2]: 6.3 µg/mL (≈ 8.87 µM) | MIC (T. mentagrophytes #4329): 12.5 µg/mL (≈ 17.6 µM) | MIC (Candida albicans IAM4888): 3.1 µg/mL (≈ 4.36 µM) | MIC [3]: > 100 µg/mL | MIC (C. neoformans IAM4514 [4]): 3.1 µg/mL (≈ 4.36 µM) | MIC (Mucor spinosus IFO5317): 25 µg/mL (≈ 35.2 µM) | MIC [5]: 12.5 µg/mL (≈ 17.6 µM) | MIC [6]: 12.5 µg/mL (≈ 17.6 µM) | MIC (A. fumigatus IAM2034 [7]): 12.5 µg/mL (≈ 17.6 µM) | MIC [8]: > 100 µg/mL | MIC [9]: 6.3 µg/mL (≈ 8.87 µM) | MIC (C. albicans A9540 [10]): 3.1 µg/mL (≈ 4.36 µM)

COc1cc(O)c2c(c1)C(=O)c1c(cc3c(c1O)-c1c(cc(C)c(C(=O)N[C@H](CO)C(=O)O)c1O)[C@H](O[C@@H]1O[C@H](C)[C@H](N(C)C)[C@H](O)[C@H]1O)[C@H]3O)C2=O [Des-xylosyl N,N-dimethyl BU-3608 FA-2]
MIC (A. flavus FA21436): 12.5 µg/mL (≈ 16.9 µM) | MIC [1]: 1.6 µg/mL (≈ 2.17 µM) | MIC [2]: 3.1 µg/mL (≈ 4.2 µM) | MIC (T. mentagrophytes #4329): 6.3 µg/mL (≈ 8.53 µM) | MIC (Candida albicans IAM4888): 6.3 µg/mL (≈ 8.53 µM) | MIC [3]: 100 µg/mL (≈ 135 µM) | MIC (C. neoformans IAM4514 [4]): 1.6 µg/mL (≈ 2.17 µM) | MIC (Mucor spinosus IFO5317): 25 µg/mL (≈ 33.8 µM) | MIC [5]: 6.3 µg/mL (≈ 8.53 µM) | MIC [6]: 6.3 µg/mL (≈ 8.53 µM) | MIC (A. fumigatus IAM2034 [7]): 6.3 µg/mL (≈ 8.53 µM) | MIC [8]: 50 µg/mL (≈ 67.7 µM) | MIC [9]: 3.1 µg/mL (≈ 4.2 µM) | MIC (C. albicans A9540 [10]): 6.3 µg/mL (≈ 8.53 µM)

CC(=O)Cc1cc2c(c(O)c1C(=O)O)-c1cc3c(c(O)c1CC2)C(=O)c1c(O)cc(O)cc1C3=O [KS-619-1]
inhibitor of calcium ion and calmodulin-dependent cyclic nucleotide phosphodiesterase [12]: inhibitor of calcium ion and calmodulin-dependentcyclic nucleotide phosphodiesterase

COc1cc(O)c2c(c1)C(=O)c1c(cc3c(c1O)-c1c(cc(C)c(C(=O)N[C@H](CO)C(=O)O)c1O)[C@H](O[C@@H]1O[C@H](C)[C@H](N(C)C)[C@H](O[C@@H]4OC[C@@H](O)[C@H](O)[C@H]4O)[C@H]1O)[C@H]3O)C2=O [N,N-dimethyl BU-3608 FA-2]
MIC (A. flavus FA21436): 25 µg/mL (≈ 28.7 µM) | MIC [1]: 0.8 µg/mL (≈ 0.919 µM) | MIC [2]: 6.3 µg/mL (≈ 7.23 µM) | MIC (T. mentagrophytes #4329): 6.3 µg/mL (≈ 7.23 µM) | MIC (Candida albicans IAM4888): 3.1 µg/mL (≈ 3.56 µM) | MIC (C. neoformans IAM4514 [4]): 0.8 µg/mL (≈ 0.919 µM) | MIC [5]: 12.5 µg/mL (≈ 14.4 µM) | MIC [6]: 3.1 µg/mL (≈ 3.56 µM) | MIC (A. fumigatus IAM2034 [7]): 3.1 µg/mL (≈ 3.56 µM) | MIC [8]: 25 µg/mL (≈ 28.7 µM) | MIC [9]: 1.6 µg/mL (≈ 1.84 µM) | MIC (C. albicans A9540 [10]): 6.3 µg/mL (≈ 7.23 µM) | LD50 determination: lethal toxicity and toxic signs (mice): neither lethal toxicity nor any significant toxic sign was observed | ED50 (C. neoformans IAM4514 [13]; qd × 5 (day 0 to day 4)): 2.8 mg/kg | ED50 (C. neoformans IAM4514 [13]; [15]): 11 mg/kg | ED50 (A. fumigatus IAM2034 [14]; qd × 5 (day 0 to day 4)): 15 mg/kg | ED50 (A. fumigatus IAM2034 [14]; [15]): 36 mg/kg | ED50 (C. albicans A9540 [11]; qd × 5 (day 0 to day 4)): 7.5 mg/kg | ED50 (C. albicans A9540 [11]; [15]): 9 mg/kg
